Measured values reported in patent US12343326B2, “Psychoactive medicines and their use for treating psychiatric and neurological conditions and disorders” (Transcend Therapeutics, Inc., priority 2021, dated 2025).

Assays:
C57BL/6J mice [1] = test: Cued fear conditioning, extinction training and recall (Example 35); assay type: in vivo, mouse
Protocol: Methods: Cued fear conditioning was performed in C57BL/6J mice. On day 1, animals were placed in the chambers and presented with a training session (CS-US pairing). The training consisted of a 2-minute habituation followed by a 30-second, 80 dB tone; during the last 2 seconds of the tone animals received a 1 mA foot shock. This US-CS procedure occurred once for a total of one paired presentation of tone and shock. Freezing behavior (immobility) was recorded in 5-10-sec intervals during the session. Percent baseline freezing behavior was determined in the 2-minute habituation period. On day 3, animals were placed in context B, in which tactile and odor cues differed from context A. Following a 2 minute acclimation period animals received 4×30 sec presentations of the CS (tone) in the absence of the US (footshock), with a 45 sec interval between presentations. Freezing was recorded in 5-10-sec intervals to measure baseline freezing response to the altered context, and freezing response to each tone cue presentation. […] Freezing was recorded in 5-10-sec intervals to measure baseline freezing response to the altered context, and freezing response to each tone cue presentation.

rats = test: Open field test (OFT); assay type: in vivo, rat; conditions: for time spent in the center of the open field vs. vehicle: single dose 5 or 15 mg/kg IP (text), 5-30 mg/kg (FIG. 11A), 30 minutes before testing
Protocol: This behavioral assay, also widely used as an anxiety paradigm, capitalizes on a rodent's innate fear of brightly lit open spaces, which are assumed to induce fear or anxiety. Rodents spend more time hugging the walls of the open field during the test, and these effects correlate to underlying brain regions and mechanisms.
Method: Consecutive beam breaks and/or video-tracking of time spent in the center versus periphery of the open field are measured. Also measured are parameters such as distance traveled and ambulatory activity (horizontal and vertical) for the duration of the test session.
The open field test (OFT) capitalizes on a rodent's innate fear of open spaces to assess anxiety-like behavior. More time spent in the center of an open field reflects an anxiolytic (anti-anxiety) effect.
Locomotor activity was also measured in the OFT.
To investigate whether MBDB has an anti-anxiety (anxiolytic) effect, rats were dosed with MBDB (0.5-30 mg/kg, IP) or vehicle (saline) and 30-minutes later were tested in the open field for 30 minutes. This anxiety test capitalizes on a rodents' innate fear of wide-open spaces and propensity to hug the walls when placed into the open field. Therefore, a drug that increases the time spent in the center of the open field has anxiolytic activity and predicts utility for treating anxiety in humans.

C57BL/6J mice [2] = test: Mouse head-twitch response (HTR) test; assay type: in vivo; conditions: i.p., any dose tested, HTR measured for 10 minutes
Protocol: Head twitch response (HTR) was evaluated using C57BL/6J mice (ages 7-10 weeks), Mice were ear tagged at least three days after arrival to the animal facility and allowed to rest for at least three days before behavioral testing. Small magnets (SuperMagnetMan—N45 magnet 3 mm diameter, 0.5 mm thickness) were glued to ear tags (Stoelting—La Pias Aluminum Ear Tags) at least two days before mice were ear tagged. The experimental setup was adapted from Gonzales-Maeso (de la Fuente Revenga et al., 2019) and Kwan (Jefferson et al., 2022; Savalia et al., 2021), including experimental apparatus and MATLAB code for analysis.
Doses were randomly assigned, and age-matched controls were injected with vehicle and randomly interspersed with drug conditions. At least three animals per sex were used for each drug dose and condition. If animals were used in multiple HTR experiments, experimental sessions took place at least one week apart. Two animals were run at a time. Immediately after i.p. injection of psychedelic or entactogen drug, animals were placed in separate plastic boxes within a larger chamber (Home Depot—28 in. W×32 in. H×21.5 in. D), and HTR was measured for 10 minutes. A small lamp was placed in the back of the larger chamber, and a high-speed camera (Basler—Aca 1920-155 μm) was suspended from the ceiling to record video of the animals in the plastic boxes. […]

168 GPCRs [3] = molecular target: 168 GPCRs (Homo sapiens, UniProt Q96P65); test: β-arrestin based GPCR screen (PathHunter / GPCRmax), antagonist mode
Chain of 168 GPCRs (Homo sapiens, UniProt Q96P65) (Q96P65 whole entry): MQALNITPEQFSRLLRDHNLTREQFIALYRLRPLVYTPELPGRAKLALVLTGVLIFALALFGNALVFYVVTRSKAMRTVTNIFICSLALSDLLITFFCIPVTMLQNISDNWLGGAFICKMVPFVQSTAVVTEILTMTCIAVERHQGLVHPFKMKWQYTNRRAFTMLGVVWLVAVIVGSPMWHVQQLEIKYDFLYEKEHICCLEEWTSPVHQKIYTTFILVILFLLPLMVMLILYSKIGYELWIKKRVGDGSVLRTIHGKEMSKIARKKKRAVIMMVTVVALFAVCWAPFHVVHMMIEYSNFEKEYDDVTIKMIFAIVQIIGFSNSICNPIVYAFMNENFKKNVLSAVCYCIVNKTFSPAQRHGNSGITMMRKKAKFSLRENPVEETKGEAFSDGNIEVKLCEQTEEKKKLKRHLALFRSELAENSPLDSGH

168 GPCRs [4] = molecular target: 168 GPCRs (Homo sapiens, UniProt Q03431); test: as above
Chain of 168 GPCRs (Homo sapiens, UniProt Q03431) (Q03431 27-593): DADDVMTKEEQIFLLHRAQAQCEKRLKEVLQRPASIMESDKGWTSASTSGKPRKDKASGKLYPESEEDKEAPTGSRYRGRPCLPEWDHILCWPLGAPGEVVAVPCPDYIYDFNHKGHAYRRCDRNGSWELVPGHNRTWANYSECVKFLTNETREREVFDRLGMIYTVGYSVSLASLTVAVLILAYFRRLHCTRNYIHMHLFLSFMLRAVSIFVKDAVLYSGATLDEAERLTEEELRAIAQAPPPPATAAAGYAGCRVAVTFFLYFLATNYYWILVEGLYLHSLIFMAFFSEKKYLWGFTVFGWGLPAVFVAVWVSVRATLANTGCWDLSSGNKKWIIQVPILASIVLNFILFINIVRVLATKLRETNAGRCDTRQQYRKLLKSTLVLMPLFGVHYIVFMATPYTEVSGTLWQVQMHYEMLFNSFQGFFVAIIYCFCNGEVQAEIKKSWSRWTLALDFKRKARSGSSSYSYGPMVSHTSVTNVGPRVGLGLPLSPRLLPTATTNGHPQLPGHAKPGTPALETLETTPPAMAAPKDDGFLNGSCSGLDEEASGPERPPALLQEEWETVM

168 GPCRs [5] = molecular target: T1, 168 GPCRs (Homo sapiens, UniProt Q5NUL3); test: as above
T1 sequence (Q5NUL3 1-361): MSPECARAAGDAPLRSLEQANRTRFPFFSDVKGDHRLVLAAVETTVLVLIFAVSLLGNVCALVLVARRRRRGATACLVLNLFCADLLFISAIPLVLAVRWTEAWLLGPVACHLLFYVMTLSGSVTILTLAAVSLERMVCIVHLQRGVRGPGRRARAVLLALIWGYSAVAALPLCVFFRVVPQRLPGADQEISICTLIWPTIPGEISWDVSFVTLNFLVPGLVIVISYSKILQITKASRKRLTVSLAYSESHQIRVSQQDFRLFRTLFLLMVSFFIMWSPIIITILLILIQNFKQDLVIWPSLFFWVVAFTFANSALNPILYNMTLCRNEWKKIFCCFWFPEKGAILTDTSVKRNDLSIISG

168 GPCRs [6] = molecular target: 168 GPCRs (Homo sapiens, UniProt P49190); test: as above
Chain of 168 GPCRs (Homo sapiens, UniProt P49190) (P49190 25-550): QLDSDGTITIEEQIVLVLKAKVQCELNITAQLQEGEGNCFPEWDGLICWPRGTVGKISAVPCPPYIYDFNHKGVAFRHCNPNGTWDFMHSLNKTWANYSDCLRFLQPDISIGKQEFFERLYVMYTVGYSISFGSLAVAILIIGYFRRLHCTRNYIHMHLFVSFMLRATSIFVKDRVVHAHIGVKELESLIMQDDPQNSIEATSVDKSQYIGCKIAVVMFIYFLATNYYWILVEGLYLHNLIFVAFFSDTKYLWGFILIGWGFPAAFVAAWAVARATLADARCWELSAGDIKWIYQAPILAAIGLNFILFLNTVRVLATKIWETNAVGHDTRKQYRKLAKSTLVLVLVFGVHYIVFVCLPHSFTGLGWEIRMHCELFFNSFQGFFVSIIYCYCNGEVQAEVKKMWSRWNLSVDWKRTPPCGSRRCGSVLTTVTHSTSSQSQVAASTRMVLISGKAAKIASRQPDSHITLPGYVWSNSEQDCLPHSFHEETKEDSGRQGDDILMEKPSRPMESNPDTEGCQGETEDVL

168 GPCRs [7] = molecular target: 168 GPCRs (Homo sapiens, UniProt P28566); test: as above; conditions: HTR1E
Chain of 168 GPCRs (Homo sapiens, UniProt P28566) (P28566 whole entry): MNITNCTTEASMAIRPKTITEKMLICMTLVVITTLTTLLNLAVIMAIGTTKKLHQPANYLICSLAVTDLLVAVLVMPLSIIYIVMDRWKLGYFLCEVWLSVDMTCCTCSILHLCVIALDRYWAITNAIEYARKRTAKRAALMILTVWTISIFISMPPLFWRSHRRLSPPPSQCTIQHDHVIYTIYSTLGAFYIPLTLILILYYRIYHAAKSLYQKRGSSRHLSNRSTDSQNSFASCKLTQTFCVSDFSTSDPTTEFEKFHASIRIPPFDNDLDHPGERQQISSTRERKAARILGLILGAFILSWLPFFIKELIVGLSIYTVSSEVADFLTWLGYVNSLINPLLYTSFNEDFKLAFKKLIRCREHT

168 GPCRs [8] = molecular target: 168 GPCRs (Homo sapiens, UniProt Q8TDS5); test: as above
Chain of 168 GPCRs (Homo sapiens, UniProt Q8TDS5) (Q8TDS5 whole entry): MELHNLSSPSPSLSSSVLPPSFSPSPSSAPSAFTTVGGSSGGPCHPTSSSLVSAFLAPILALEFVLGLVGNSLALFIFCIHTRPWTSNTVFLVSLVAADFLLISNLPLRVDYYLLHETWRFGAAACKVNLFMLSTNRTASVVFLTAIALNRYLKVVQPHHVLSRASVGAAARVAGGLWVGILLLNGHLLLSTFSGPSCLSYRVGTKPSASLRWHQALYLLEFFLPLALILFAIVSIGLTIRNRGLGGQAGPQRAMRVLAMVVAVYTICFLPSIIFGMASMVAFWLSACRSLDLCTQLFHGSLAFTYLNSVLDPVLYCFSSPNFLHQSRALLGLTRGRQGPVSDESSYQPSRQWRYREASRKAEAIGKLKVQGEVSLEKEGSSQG

168 GPCRs [9] = molecular target: 168 GPCRs (Homo sapiens, UniProt P35372); test: as above
Chain of 168 GPCRs (Homo sapiens, UniProt P35372) (P35372 whole entry): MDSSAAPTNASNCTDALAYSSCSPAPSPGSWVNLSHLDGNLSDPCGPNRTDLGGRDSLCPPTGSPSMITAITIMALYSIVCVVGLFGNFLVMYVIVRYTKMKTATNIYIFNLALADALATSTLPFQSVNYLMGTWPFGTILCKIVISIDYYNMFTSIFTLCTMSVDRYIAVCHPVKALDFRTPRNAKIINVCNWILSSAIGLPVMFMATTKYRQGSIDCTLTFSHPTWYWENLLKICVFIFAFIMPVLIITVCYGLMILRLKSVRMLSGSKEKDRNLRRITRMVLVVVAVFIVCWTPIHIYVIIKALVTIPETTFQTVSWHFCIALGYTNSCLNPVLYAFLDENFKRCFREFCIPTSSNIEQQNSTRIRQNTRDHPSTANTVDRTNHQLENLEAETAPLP

With `CNC(C)C(=O)c1ccc2c(c1)OCO2` (stereo not shown) [methylone, 3,4-methylenedioxy-N-methylcathinone] the “fear extinction training on day 3” value (C57BL/6J mice [1]; all doses: 10, 20 or 30 mg/kg IP) was “significantly improved fear extinction training”, the “effect on fear extinction training and testing” value (C57BL/6J mice [1]; methylone 30 mg/kg IP 30 min before extinction training on Day 3) was “rapid, robust and long-lasting beneficial effect” and the “locomotor activity (OFT) vs. vehicle” value (rats; methylone 5 mg/kg) was “no effect”. For the same compound, the “locomotor activity (OFT) vs. vehicle” value (rats; methylone 15 or 30 mg/kg) was “significant increase in locomotor activity”, the “time spent in the center of the open field vs. vehicle” value (rats) was “significantly increases the time spent in the center” and the “time spent in the center of the open field vs. vehicle” value (rats; listed as Methylone) was “significantly increased center time”. The head-twitch behaviors (C57BL/6J mice [2]) was “no effect on head-twitch behaviors at any dose tested”, the head-twitch behaviors (C57BL/6J mice [2]; listed as Methylone) was “no hallucinogenic activity” and the activity at 10 µM (168 GPCRs [3]; GPR103, Antagonist mode, 10 uM) was 7%. For the same compound, the activity at 1 µM (168 GPCRs [3]; GPR103, Antagonist, 1 uM) was 4.1%, the activity at 10 µM (168 GPCRs [4]; PTHR1, Antagonist mode, 10 uM) was -8.3% and the activity at 1 µM (168 GPCRs [4]; PTHR1, Antagonist, 1 uM) was 2.2%. For the same compound, the activity at 10 µM (168 GPCRs [5]; GPR120, Antagonist mode, 10 uM) was 40.3%, the activity at 1 µM (168 GPCRs [5]; GPR120, Antagonist, 1 uM) was 46.5% and the activity at 10 µM (168 GPCRs [6]; PTHR2, Antagonist mode, 10 uM) was -0.2%. It also gave an activity at 1 µM (168 GPCRs [6]; PTHR2, Antagonist, 1 uM) of -1%, an activity at 10 µM (168 GPCRs [7]; Antagonist mode, 10 uM) of 13.2% and an activity at 1 µM (168 GPCRs [7]; Antagonist, 1 uM) of 7.6%. It also gave an activity at 10 µM (168 GPCRs [8]; OXER1, Antagonist mode, 10 uM) of 7.6%, an activity at 1 µM (168 GPCRs [8]; OXER1, Antagonist, 1 uM) of 2.9% and an activity at 10 µM (168 GPCRs [9]; OPRM1, OPRM1, Antagonist mode, 10 uM) of -18%. The activity at 1 µM (168 GPCRs [9]; OPRM1, OPRM1, Antagonist, 1 uM) was -8%.
